Reference: PubChem BioAssay (NCI)
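The compound was tested at five concentrations on cells cultured in 96-well plates, with a 48-hour exposure period. The concentration for 50% growth inhibition is given as GI50. TGI: concentration producing complete growth inhibition.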

Tests used:
Assay in all cases: NCI-60 cell line screen, 48 h
MCF7 breast = system: MCF7 breast
A549 NSCLC = system: A549 NSCLC
NCI/ADR-RES ovarian = system: NCI/ADR-RES ovarian
BT-549 breast = system: BT-549 breast
KM12 colon = system: KM12 colon
NCI-H226 lung = system: NCI-H226 lung
SR leukemia = system: SR leukemia
NCI-H23 lung = system: NCI-H23 lung
HCT-15 colon = system: HCT-15 colon
RXF 393 renal = system: RXF 393 renal
SN12C renal = system: SN12C renal
OVCAR-8 ovarian = system: OVCAR-8 ovarian
HOP-62 NSCLC = system: HOP-62 NSCLC
EKVX NSCLC = system: EKVX NSCLC
SK-MEL-2 melanoma = system: SK-MEL-2 melanoma
LOX IMVI melanoma = system: LOX IMVI melanoma
SK-OV-3 ovarian = system: SK-OV-3 ovarian
HOP-92 NSCLC = system: HOP-92 NSCLC
SF-295 CNS = system: SF-295 CNS
OVCAR-4 ovarian = system: OVCAR-4 ovarian
RPMI-8226 leukemia = system: RPMI-8226 leukemia
UACC-257 melanoma = system: UACC-257 melanoma
COLO 205 colon = system: COLO 205 colon
HL-60(TB) leukemia = system: HL-60(TB) leukemia
TK-10 renal = system: TK-10 renal
HS 578T breast = system: HS 578T breast
IGROV1 ovarian = system: IGROV1 ovarian
SK-MEL-5 melanoma = system: SK-MEL-5 melanoma
OVCAR-3 ovarian = system: OVCAR-3 ovarian
MALME-3M melanoma = system: MALME-3M melanoma

Compound: O=C(N/N=C/c1ccc(Cl)s1)c1[nH]c2ccc(Br)cc2c1-c1ccccc1
- GI50 (MCF7 breast): 266 nM
- TGI (MCF7 breast): 4.21 µM
- GI50 (A549 NSCLC): 376 nM
- TGI (A549 NSCLC): > 48.2 µM
- GI50 (NCI/ADR-RES ovarian): 144 nM
- GI50 (BT-549 breast): 274 nM
- TGI (BT-549 breast): 765 nM
- GI50 (KM12 colon): 402 nM
- TGI (KM12 colon): 27.9 µM
- GI50 (NCI-H226 lung): 313 nM
- TGI (NCI-H226 lung): 6.93 µM
- GI50 (SR leukemia): 290 nM
- TGI (SR leukemia): 27.6 µM
- GI50 (NCI-H23 lung): 426 nM
- TGI (NCI-H23 lung): 38.8 µM
- GI50 (HCT-15 colon): 277 nM
- GI50 (RXF 393 renal): 547 nM
- TGI (RXF 393 renal): 5.01 µM
- GI50 (SN12C renal): 350 nM
- TGI (SN12C renal): 32.9 µM
- GI50 (OVCAR-8 ovarian): 214 nM
- TGI (OVCAR-8 ovarian): 714 nM
- GI50 (HOP-62 NSCLC): 766 nM
- TGI (HOP-62 NSCLC): 41.6 µM
- GI50 (EKVX NSCLC): 1180 nM
- TGI (EKVX NSCLC): > 100 µM
- GI50 (SK-MEL-2 melanoma): 325 nM
- TGI (SK-MEL-2 melanoma): 21 µM
- GI50 (LOX IMVI melanoma): 308 nM
- TGI (LOX IMVI melanoma): 1350 nM
- GI50 (SK-OV-3 ovarian): 409 nM
- TGI (SK-OV-3 ovarian): 91.2 µM
- GI50 (HOP-92 NSCLC): 1370 nM
- TGI (HOP-92 NSCLC): 68.3 µM
- GI50 (SF-295 CNS): 275 nM
- TGI (SF-295 CNS): 3.22 µM
- GI50 (OVCAR-4 ovarian): 594 nM
- TGI (OVCAR-4 ovarian): 69.8 µM
- GI50 (RPMI-8226 leukemia): 356 nM
- TGI (RPMI-8226 leukemia): > 52.5 µM
- GI50 (UACC-257 melanoma): 508 nM
- TGI (UACC-257 melanoma): > 100 µM
- GI50 (COLO 205 colon): 488 nM
- TGI (COLO 205 colon): 1680 nM
- GI50 (HL-60(TB) leukemia): 226 nM
- TGI (HL-60(TB) leukemia): 612 nM
- GI50 (TK-10 renal): 4.19 µM
- TGI (TK-10 renal): > 100 µM
- GI50 (HS 578T breast): 496 nM
- TGI (HS 578T breast): 34.9 µM
- GI50 (IGROV1 ovarian): 386 nM
- TGI (IGROV1 ovarian): 21.4 µM
- GI50 (SK-MEL-5 melanoma): 284 nM
- TGI (SK-MEL-5 melanoma): 878 nM
- GI50 (OVCAR-3 ovarian): 321 nM
- TGI (OVCAR-3 ovarian): 4.18 µM
- GI50 (MALME-3M melanoma): 489 nM
